# Values joined by “and” are separate entries in the source; they are usually repeats but may differ in a detail not shown here. Equal values may be shown once. “Also recorded” adds a separate entry of the source.
# Legend:
# [1] = system: patients recruited within 30 days after a myocardial infarction; details: human, in vivo
# [2] = system: High-sensitivity C-reactive protein; details: in vivo
# [3] = system: white-cell count; details: in vivo
# [4] = system: patients recruited within 30 days after a myocardial infarction; details: in vivo
# [5] = system: patients with stable coronary disease; details: in vivo; cited from earlier work
# [6] = CIRT; cited from earlier work
compound,measurement,setting,value
COc1cc2c(c(OC)c1OC)-c1ccc(OC)c(=O)cc1[C@@H](NC(C)=O)CC2 [Colchicine],"Adjusted Hazard Ratio (95% CI), time to first primary endpoint",[1],0.78 (0.62-0.98)
same,Death,[1],43 (1.8) number (percent)
same,Death from cardiovascular causes,[1],20 (0.8) number (percent)
same,Deep venous thrombosis or pulmonary embolus,[1],10 (0.4) number (percent)
same,"Hazard Ratio (95% CI), CV death",[1],0.83 (0.45-1.53)
same,"Hazard Ratio (95% CI), Death",[1],0.98 (0.64–1.49)
same,"Hazard Ratio (95% CI), Deep venous thrombosis or pulmonary embolus",[1],1.43 (0.54–3.75)
same,"Hazard Ratio (95% CI), MI",[1],0.84 (0.62-1.14)
same,"Hazard Ratio (95% CI), Resuscitated cardiac arrest",[1],1.00 (0.29-3.46)
same,"Hazard Ratio (95% CI), Stroke",[1],0.26 (0.10-0.71)
same,"Hazard Ratio (95% CI), Urgent hospitalization for angina requiring revascularization",[1],0.47 (0.28-0.78)
same,"Hazard Ratio (95% CI), WLW model, 1st Event",[1],0.77 (0.61; 0.96)
same,"Hazard Ratio (95% CI), WLW model, 2nd Event",[1],0.73 (0.48; 1.11)
same,"Hazard Ratio (95% CI), WLW model, 3rd Event",[1],0.64 (0.37; 1.10)
same,"Hazard Ratio (95% CI), WLW model, Average",[1],0.77 (0.61; 0.96)
same,"Hazard Ratio (95% CI), total primary endpoint events, Andersen-Gill model",[1],0.69 (0.54; 0.88)
same,MI,[1],77 (3.4%) no. (%)
same,Myocardial infarction,[1],89 (3.8) number (percent)
same,Number of primary endpoint events per patient: 0 (number of patients),[1],2235
same,Number of primary endpoint events per patient: 1 (number of patients),[1],111
same,Number of primary endpoint events per patient: 2 (number of patients),[1],18
same,Number of primary endpoint events per patient: 3 (number of patients),[1],1
same,Number of primary endpoint events per patient: 4 (number of patients),[1],1
same,Primary endpoint,[1],115(5.1%) no. (%)
same,Rate of primary endpoint events per 100 patient-months,[1],0.29 per 100 patient-months
same,Secondary composite end point,[1],111 (4.7) number (percent)
same,Total number of primary endpoint events,[1],154
same,Urgent hospitalization for angina leading to revascularization,[1],25 (1.1) number (percent)
same,Urgent hospitalization for angina requiring revascularization,[1],22 (1.0%) no. (%)
same,ischemic cardiovascular events / primary composite efficacy end point compared with placebo (in words),[1],significantly lower percentage of patients with ischemic cardiovascular events than placebo; also recorded: statistically significant lower risk of ischemic cardiovascular events than placebo
same,primary end point occurred in % of the patients,[1],5.5% and 5.1%
same,secondary efficacy end point occurred in % of the patients,[1],4.7%
same,"Hs-C reactive protein, 6 months, geometric mean (IQR)",[2],"1.37 (0.75, 2.13) mg/L"
same,"Hs-C reactive protein, Adjusted GM percent change (95% CI)",[2],"-70.0% and -70.0 (-74.6, -64.5) %"
same,"Hs-C reactive protein, Placebo-adjusted GM percent change (95% CI)",[2],"-10.1% and -10.1 (-28.6, 13.4) %"
same,"Hs-C reactive protein, Randomization, geometric mean (IQR)",[2],"4.27 (2.12, 7.22) mg/L"
same,reduction in the C-reactive protein level,[2],> 65%
same,"Circulating lymphocytes, 12 months, geometric mean (IQR)",[3],"1.83 (1.50, 2.44) 10^3/µL"
same,"Circulating lymphocytes, Adjusted GM percent change (95% CI)",[3],"1.80 (-0.46, 4.11) %"
same,"Circulating lymphocytes, Placebo-adjusted GM percent change (95% CI)",[3],"1.10 (-2.06, 4.36) %"
same,"Circulating lymphocytes, Randomization, geometric mean (IQR)",[3],"1.79 (1.40, 2.40) 10^3/µL"
same,"Circulating neutrophils, 12 months, geometric mean (IQR)",[3],"3.95 (3.27, 5.08) 10^3/µL"
same,"Circulating neutrophils, Adjusted GM percent change (95% CI)",[3],"-27.63 (-29.48, -25.73) %"
same,"Circulating neutrophils, Placebo-adjusted GM percent change (95% CI)",[3],"0.45 (-3.28, 4.32) %"
same,"Circulating neutrophils, Randomization, geometric mean (IQR)",[3],"5.45 (4.36, 7.15) 10^3/µL"
same,"Total white blood cell count, 12 months, geometric mean (IQR)",[3],"6.95 (5.99, 8.30) 10^3/µL"
same,"Total white blood cell count, Adjusted GM percent change (95% CI)",[3],"-18.8% and -18.81 (-20.12, -17.47) %"
same,"Total white blood cell count, Placebo-adjusted GM percent change (95% CI)",[3],"0.3% and 0.26 (-2.15, 2.72) %"
same,"Total white blood cell count, Randomization, geometric mean (IQR)",[3],"8.54 (7.10, 10.40) 10^3/µL"
same,Anemia,[4],14 (0.6) number of patients (percent)
same,Any serious adverse event,[4],383 (16.4) number of patients (percent)
same,At least one gastrointestinal adverse event,[4],17.5%
same,"Diarrhea reported, % of the patients",[4],9.7%
same,Gastrointestinal hemorrhage,[4],7 (0.3) number of patients (percent)
same,Gastrointestinal serious adverse event,[4],46 (2.0) number of patients (percent)
same,Hospitalization for heart failure,[4],25 (1.1) number of patients (percent)
same,"Infection as a serious adverse event, % of the patients",[4],2.2%
same,Infection serious adverse event,[4],51 (2.2) number of patients (percent)
same,Leukopenia,[4],2 (0.1) number of patients (percent)
same,Nausea adverse event,[4],43 (1.8) number of patients (percent)
same,"Pneumonia reported as a serious adverse event, % of the patients",[4],0.9%
same,Pneumonia serious adverse event,[4],21 (0.9) number of patients (percent)
same,Septic shock serious adverse event,[4],2 (0.1) number of patients (percent)
same,Thrombocytopenia,[4],3 (0.1) number of patients (percent)
same,incidence of adverse events considered to be related to trial drug,[4],16.0%
same,incidence of septic shock (in words),[4],did not increase the incidence of septic shock
same,"nausea, % of the patients",[4],1.8%
same,overall incidence of serious adverse events,[4],16.4%
same,serious adverse event of myopathy (in words),[4],no serious adverse event of myopathy linked to colchicine
same,"trial regimen discontinued, % of the patients",[4],18.4%
same,cardiovascular events (in words),[5],fewer cardiovascular events
CN(Cc1cnc2nc(N)nc(N)c2n1)c1ccc(C(=O)N[C@@H](CCC(=O)O)C(=O)O)cc1 [methotrexate],cardiovascular outcomes and plasma markers of inflammation (in words),[6],did not affect cardiovascular outcomes or plasma markers of inflammation
